Experimental data as given in ChEMBL document CHEMBL4616633, “Citral Inhibits the Inflammatory Response and Hyperalgesia in Mice: The Role of TLR4, TLR2/Dectin-1, and CB2 Cannabinoid Receptor/ATP-Sensitive K+ Channel Pathways” (J Nat Prod, 2020).
Active and inactive are the calls of the source. No cut-off for these calls is given here.

Columns and labels:
[1] = tested on: Mus musculus; test: Inhibition of carrageenan-induced paw edema in Swiss mouse at 1 mg/kg, ip pretreated for 30 mins followed by carrageenan-stimulation and measured after 6 hrs; type: functional, organism-based
[2] = tested on: Mus musculus; test: Inhibition of carrageenan-induced thermal allodynia in Swiss mouse at 1 mg/kg, ip pretreated for 30 mins followed by carrageenan-stimulation and measured after 6 hrs; type: functional, organism-based
[3] = tested on: Mus musculus; test: Inhibition of carrageenan-induced paw edema in Swiss mouse at 50 mg/kg, po pretreated for 1 hr followed by carrageenan-stimulation and measured after 6 hrs relative to control; type: functional
[4] = tested on: Mus musculus; test: Inhibition of carrageenan-induced paw edema in Swiss mouse at 100 mg/kg, po pretreated for 1 hr followed by carrageenan-stimulation and measured after 6 hrs relative to control; type: functional
[5] = tested on: Mus musculus; test: Inhibition of carrageenan-induced paw edema in Swiss mouse at 300 mg/kg, po pretreated for 1 hr followed by carrageenan-stimulation and measured after 6 hrs relative to control; type: functional
[6] = tested on: Mus musculus; test: Inhibition of carrageenan-induced thermal allodynia in Swiss mouse at 50 mg/kg, po pretreated for 1 hr followed by carrageenan-stimulation and measured after 6 hrs relative to control; type: functional
[7] = tested on: Mus musculus; test: Inhibition of carrageenan-induced thermal allodynia in Swiss mouse at 100 mg/kg, po pretreated for 1 hr followed by carrageenan-stimulation and measured after 6 hrs relative to control; type: functional
[8] = tested on: Mus musculus; test: Inhibition of carrageenan-induced thermal allodynia in Swiss mouse at 300 mg/kg, po pretreated for 1 hr followed by carrageenan-stimulation and measured after 6 hrs relative to control; type: functional
[9] = tested on: Mus musculus; test: Inhibition of croton oil-induced ear edema in mouse at 0.1 mg/ear administered topically pretreated for 1 hr followed by croton oil-stimulation and measured after 6 hrs relative to control; type: functional
[10] = tested on: Mus musculus; test: Inhibition of croton oil-induced ear edema in mouse at 0.3 mg/ear administered topically pretreated for 1 hr followed by croton oil-stimulation and measured after 6 hrs relative to control; type: functional
[11] = tested on: Mus musculus; test: Inhibition of LPS-induced TLR4 pathway assessed as reduction in paw edema in Swiss mouse at 50 mg/kg, po pretreated for 1 hr followed by LPS-stimulation and measured after 48 hrs relative to control; type: functional
[12] = tested on: Mus musculus; test: Inhibition of zymosan-induced TLR2/Dectin-1 Signaling Pathway assessed as reduction in paw edema in Swiss mouse at 50 mg/kg, po pretreated for 1 hr followed by […] and measured after 48 hrs relative to control; type: functional
[13] = tested on: Mus musculus; test: Inhibition of carrageenan-induced paw edema in Swiss mouse at 50 mg/kg, po pretreated for 30 mins followed by carrageenan-stimulation and co-treated with CB2R antagonist AM630 and measured after 6 hrs; type: functional, organism-based
[14] = tested on: Mus musculus; test: Inhibition of carrageenan-induced thermal allodynia in Swiss mouse at 50 mg/kg, po pretreated for 30 mins followed by carrageenan-stimulation and co-treated with CB2R antagonist AM630 and measured after 6 hrs; type: functional, organism-based
[15] = tested on: Mus musculus; test: Inhibition of carrageenan-induced paw edema in Swiss mouse at 50 mg/kg, po pretreated for 30 mins followed by carrageenan-stimulation and co-treated with CB1R antagonist AM281 and measured after 6 hrs; type: functional, organism-based
[16] = tested on: Mus musculus; test: Inhibition of carrageenan-induced thermal allodynia in Swiss mouse at 50 mg/kg, po pretreated for 30 mins followed by carrageenan-stimulation and co-treated with CB1R antagonist AM281 and measured after 6 hrs; type: functional, organism-based
[17] = tested on: Mus musculus; test: Inhibition of carrageenan-induced paw edema in Swiss mouse at 50 mg/kg, po pretreated for 30 mins followed by carrageenan-stimulation and co-treated with glibenclamide and measured after 6 hrs; type: functional, organism-based
[18] = tested on: Mus musculus; test: Inhibition of carrageenan-induced thermal allodynia in Swiss mouse at 50 mg/kg, po pretreated for 30 mins followed by carrageenan-stimulation and co-treated glibenclamide and measured after 6 hrs; type: functional, organism-based
[19] = Psychoactive effect in Swiss mouse assessed as reduction in locomotor activity by measuring change in distance travelled at 50 mg/kg, po and measured for 6 hrs; type: ADME, organism-based; conditions: in vivo
[20] = Psychoactive effect in Swiss mouse assessed as antinociceptive effect by measuring paw withdrawal latencies at 50 mg/kg, po and measured for 6 hrs; type: ADME, organism-based; conditions: in vivo
[21] = Psychoactive effect in Swiss mouse assessed as catalepsy effect at 50 mg/kg, po and measured for 6 hrs; type: ADME, organism-based; conditions: in vivo
[22] = Psychoactive effect in Swiss mouse assessed as hypothermic effects at 50 mg/kg, po and measured for 6 hrs by thermometric method; type: ADME, organism-based; conditions: in vivo
[23] = Toxicity in Swiss mouse assessed as increase in weight gain at 5 to 2000 mg/kg, po after 14 days; type: organism-based; conditions: in vivo, 336 h
[24] = Toxicity in Swiss mouse assessed as mortality at 5 to 1000 mg/kg, po after 14 days; type: organism-based; conditions: in vivo, 336 h
[25] = Toxicity in Swiss mouse assessed as reduction in locomotion at 1000 mg/kg, po after 14 days; type: organism-based; conditions: in vivo, 336 h
[26] = Toxicity in Swiss mouse assessed as reduction in locomotion at 2000 mg/kg, po after 14 days; type: organism-based; conditions: in vivo, 336 h
[27] = Toxicity in Swiss mouse assessed as effect on touch sensitivity at 1000 mg/kg, po after 14 days; type: organism-based; conditions: in vivo, 336 h
[28] = Toxicity in Swiss mouse assessed as effect on touch sensitivity at 2000 mg/kg, po after 14 days; type: organism-based; conditions: in vivo, 336 h
[29] = Toxicity in Swiss mouse assessed as effect on respiratory movement at 1000 mg/kg, po after 14 days; type: organism-based; conditions: in vivo, 336 h
[30] = Toxicity in Swiss mouse assessed as effect on paradoxical breathing at 2000 mg/kg, po after 14 days; type: organism-based; conditions: in vivo, 336 h
[31] = Toxicity in Swiss mouse assessed as food consumption at 5 mg/kg, po after 14 days (reference value: 27.3%); type: organism-based; conditions: in vivo, 336 h
[32] = Toxicity in Swiss mouse assessed as food consumption at 50 mg/kg, po after 14 days (reference value: 27.3%); type: organism-based; conditions: in vivo, 336 h
[33] = Toxicity in Swiss mouse assessed as food consumption at 300 mg/kg, po after 14 days (reference value: 27.3%); type: organism-based; conditions: in vivo, 336 h
[34] = Toxicity in Swiss mouse assessed as food consumption at 1000 mg/kg, po after 14 days (reference value: 27.3%); type: organism-based; conditions: in vivo, 336 h
[35] = Toxicity in Swiss mouse assessed as food consumption at 2000 mg/kg, po after 14 days (reference value: 27.3%); type: organism-based; conditions: in vivo, 336 h
[36] = Toxicity in Swiss mouse assessed as water consumption at 5 mg/kg, po after 14 days (reference value: 50.5%); type: organism-based; conditions: in vivo, 336 h
[37] = Toxicity in Swiss mouse assessed as water consumption at 50 mg/kg, po after 14 days (reference value: 50.5%); type: organism-based; conditions: in vivo, 336 h
[38] = Toxicity in Swiss mouse assessed as water consumption at 300 mg/kg, po after 14 days (reference value: 50.5%); type: organism-based; conditions: in vivo, 336 h
[39] = Toxicity in Swiss mouse assessed as water consumption at 1000 mg/kg, po after 14 days (reference value: 50.5%); type: organism-based; conditions: in vivo, 336 h
[40] = Toxicity in Swiss mouse assessed as water consumption at 2000 mg/kg, po after 14 days (reference value: 50.5%); type: organism-based; conditions: in vivo, 336 h
[41] = Toxicity in Swiss mouse assessed as effect on kidney weight at 5 to 2000 mg/kg, po after 14 days; type: organism-based; conditions: in vivo, 336 h
[42] = Toxicity in Swiss mouse assessed as effect on liver weight at 5 to 2000 mg/kg, po after 14 days; type: organism-based; conditions: in vivo, 336 h
[43] = Toxicity in Swiss mouse assessed as effect on lung weight at 5 to 2000 mg/kg, po after 14 days; type: organism-based; conditions: in vivo, 336 h
[44] = Toxicity in Swiss mouse assessed as effect on heart weight at 5 to 2000 mg/kg, po after 14 days; type: organism-based; conditions: in vivo, 336 h
[45] = Toxicity in Swiss mouse assessed as effect on glucose level weight at 5 to 2000 mg/kg, po after 14 days; type: organism-based; conditions: in vivo, 336 h
[46] = Toxicity in Swiss mouse assessed as effect on blood urea nitrogen level weight at 5 to 2000 mg/kg, po after 14 days; type: organism-based; conditions: in vivo, 336 h
[47] = Toxicity in Swiss mouse assessed as effect on total cholesterol level weight at 5 to 2000 mg/kg, po after 14 days; type: organism-based; conditions: in vivo, 336 h
[48] = Toxicity in Swiss mouse assessed as effect on triglycerides level weight at 5 to 2000 mg/kg, po after 14 days; type: organism-based; conditions: in vivo, 336 h
[49] = Toxicity in Swiss mouse assessed as effect on total protein level weight at 5 to 2000 mg/kg, po after 14 days; type: organism-based; conditions: in vivo, 336 h
[50] = Toxicity in Swiss mouse assessed as effect on ALT level weight at 5 to 2000 mg/kg, po after 14 days; type: organism-based; conditions: in vivo, 336 h
[51] = Toxicity in Swiss mouse assessed as effect on creatinine level weight at 5 to 2000 mg/kg, po after 14 days; type: organism-based; conditions: in vivo, 336 h
[52] = Toxicity in Swiss mouse assessed as effect on AST level weight at 5 to 2000 mg/kg, po after 14 days; type: organism-based; conditions: in vivo, 336 h
[53] = Toxicity in Swiss mouse assessed as effect on ALP level weight at 5 to 2000 mg/kg, po after 14 days; type: organism-based; conditions: in vivo, 336 h
[54] = Toxicity in Swiss mouse assessed as effect on uric acid level weight at 5 to 2000 mg/kg, po after 14 days; type: organism-based; conditions: in vivo, 336 h

Q: What does the source list for COc1ccc(C(=O)c2c(C)n(CCN3CCOCC3)c3cc(I)ccc23)cc1?
A: inhibition [1]: inactive; inhibition [2]: inactive

Q: With CC(C)=CCCC(C)=CC=O (mixture of isomers) as the compound, how does the inhibition in vivo at 50 mg/kg [3] read?
A: 57%

Q: And the inhibition in vivo at 100 mg/kg [4]?
A: 70%

Q: What about the inhibition in vivo at 300 mg/kg [5] of the same compound?
A: 66%

Q: And the inhibition in vivo at 50 mg/kg [6]?
A: 62%

Q: And the inhibition in vivo at 100 mg/kg [7]?
A: 80%

Q: What about the inhibition in vivo at 300 mg/kg [8] of the same compound?
A: 62%

Q: What about the “inhibition (INH)” value [9] of the same compound?
A: 22%

Q: What about the “inhibition (INH)” value [10] of the same compound?
A: 83%

Q: And the inhibition in vivo at 50 mg/kg [11]?
A: 70%

Q: And the inhibition in vivo at 50 mg/kg [12]?
A: 45%

Q: What about the inhibition [13] of the same compound?
A: inactive

Q: What about the inhibition [14] of the same compound?
A: inactive

Q: And the inhibition [15]?
A: Active

Q: And the inhibition [16]?
A: Active

Q: What about the inhibition [17] of the same compound?
A: inactive

Q: And the inhibition [18]?
A: inactive

Q: What about the Activity [19] of the same compound?
A: Non-Toxic

Q: And the Activity [20]?
A: Non-Toxic

Q: What about the Activity [21] of the same compound?
A: Non-Toxic

Q: What about the Activity [22] of the same compound?
A: Non-Toxic

Q: And the Activity [23]?
A: Non-Toxic

Q: What about the Activity [24] of the same compound?
A: Non-Toxic

Q: What about the Activity [25] of the same compound?
A: Non-Toxic

Q: What about the Activity [26] of the same compound?
A: Non-Toxic

Q: And the Activity [27]?
A: Non-Toxic

Q: What about the Activity [28] of the same compound?
A: Non-Toxic

Q: And the Activity [29]?
A: Non-Toxic

Q: And the Activity [30]?
A: Non-Toxic

Q: And the Activity [31]?
A: 31.2%

Q: And the Activity [32]?
A: 21.4%

Q: What about the Activity [33] of the same compound?
A: 28.1%

Q: And the Activity [34]?
A: 28.1%

Q: And the Activity [35]?
A: 8.8%

Q: What about the Activity [36] of the same compound?
A: 44.4%

Q: What about the Activity [37] of the same compound?
A: 37.5%

Q: And the Activity [38]?
A: 36%

Q: And the Activity [39]?
A: 40%

Q: What about the Activity [40] of the same compound?
A: 15.6%

Q: What about the Activity [41] of the same compound?
A: Non-Toxic

Q: And the Activity [42]?
A: Non-Toxic

Q: What about the Activity [43] of the same compound?
A: Non-Toxic

Q: And the Activity [44]?
A: Non-Toxic

Q: And the Activity [45]?
A: Non-Toxic

Q: And the Activity [46]?
A: Non-Toxic

Q: What about the Activity [47] of the same compound?
A: Non-Toxic

Q: What about the Activity [48] of the same compound?
A: Non-Toxic

Q: And the Activity [49]?
A: Non-Toxic

Q: What about the Activity [50] of the same compound?
A: Non-Toxic

Q: And the Activity [51]?
A: Non-Toxic

Q: And the Activity [52]?
A: Non-Toxic

Q: What about the Activity [53] of the same compound?
A: Non-Toxic

Q: And the Activity [54]?
A: Non-Toxic
